Columns and labels:
Assay type in all cases: in vivo
[1] = system: sedge, umbrella (small-flower umbrella sedge, Cyperus difformis); assay: Test B flooded paddy test; details: Cyperus difformis, 250 g ai/ha, Flood; 0 to 100 scale where 0 is no effect and 100 is complete control; read-out: Sedge, Umbrella plant response rating
In short: (§1)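 2-leaf plants; pots flooded 3 cm over soil; cpd added to paddy water; depth held; greenhouse 13–15 d; visual rating vs controls, 0 = no effect, 100 = complete control.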

[2] = system: barnyardgrass (Echinochloa crus-galli); assay: Test B flooded paddy test; details: Echinochloa crus-galli, 250 g ai/ha, Flood; 0 to 100 scale where 0 is no effect and 100 is complete control; read-out: Barnyardgrass plant response rating
In short: as §1

rice (Oryra sativa) = assay: Test B flooded paddy test; details: Oryza sativa, 250 g ai/ha, Flood; 0 to 100 scale where 0 is no effect and 100 is complete control; read-out: Rice plant response rating
In short: as §1

[3] = system: ducksalad (Heteranthera limosa); assay: Test B flooded paddy test; details: Heteranthera limosa, 250 g ai/ha, Flood; 0 to 100 scale where 0 is no effect and 100 is complete control; read-out: Ducksalad plant response rating
In short: as §1

[4] = system: barnyardgrass (Echinochloa crus-galli); assay: Test A preemergence; details: Echinochloa crus-galli, pre-emergence, 240 h; for pest or weed control at 125 g/ha: 125 g ai/ha, Preemergence, visual injury rating after approximately 10 d, read-out: Barnyardgrass plant response rating (0 to 100 scale, 0 is no effect, 100 is complete control); for pest or weed control at 500 g/ha: 500 g ai/ha, preemergence, visual injury rating about 10 d after treatment, 0 to 100 scale (0 no effect, 100 complete control), read-out: Barnyardgrass plant response rating
In short: (§2)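 Seeded soil received test chemicals as a preemergence directed spray, and seedlings at one to two leaves, 2–10 cm tall, received them postemergence, in a non-phytotoxic, surfactant-containing solvent mixture. Pots were held in a greenhouse for approximately 10 d, then rated for injury from 0, no effect, to 100, complete control.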

[5] = system: pigweed (Amaranthus retroflexus); assay: Test A postemergence; details: Amaranthus retroflexus, post-emergence, 240 h, postemergence, approx. 10 d; for pest or weed control at 125 g/ha: 125 g ai/ha, visual injury on 0 to 100 scale (0 no effect, 100 complete control), read-out: Pigweed plant response rating; for pest or weed control at 500 g/ha: 500 g ai/ha, visual injury, 0 to 100 scale (0 no effect, 100 complete control), read-out: Plant response rating, Pigweed
In short: as §2

[6] = system: Galium (catchweed bedstraw, Galium aparine); assay: Test A postemergence; details: Galium, post-emergence, 240 h, postemergence, approx. 10 d; for pest or weed control at 125 g/ha: 125 g ai/ha, visual injury on 0 to 100 scale (0 no effect, 100 complete control), read-out: Galium plant response rating; for pest or weed control at 500 g/ha: 500 g ai/ha, visual injury, 0 to 100 scale (0 no effect, 100 complete control), read-out: Plant response rating, Galium
In short: as §2

Kochia (Kochia scoparia) = assay: Test A postemergence; details: Bassia scoparia, post-emergence, 240 h, postemergence, approx. 10 d; for pest or weed control at 125 g/ha: 125 g ai/ha, visual injury on 0 to 100 scale (0 no effect, 100 complete control), read-out: Kochia plant response rating; for pest or weed control at 500 g/ha: 500 g ai/ha, visual injury, 0 to 100 scale (0 no effect, 100 complete control), read-out: Plant response rating, Kochia
In short: as §2

[7] = system: barnyardgrass (Echinochloa crus-galli); assay: Test A postemergence; details: Echinochloa crus-galli, post-emergence, 240 h, read-out: Plant response rating, Barnyardgrass; for pest or weed control at 125 g/ha: 125 g ai/ha, Postemergence, visual injury after approximately 10 d, 0 to 100 scale where 0 is no effect and 100 is complete control; for pest or weed control at 500 g/ha: 500 g ai/ha, postemergence, visual injury, 0 to 100 scale (0 no effect, 100 complete control), approx. 10 d
In short: as §2

corn (Zea mays) = assay: Test A postemergence; details: Zea mays, post-emergence, 240 h; for Corn plant response rating (crop injury, 0 = no effect, 100 = complete kill) at 125 g/ha: 125 g ai/ha, Postemergence, visual injury after approximately 10 d, 0 to 100 scale where 0 is no effect and 100 is complete control; for Corn plant response rating (crop injury, 0 = no effect, 100 = complete kill) at 500 g/ha: 500 g ai/ha, postemergence, visual injury, 0 to 100 scale (0 no effect, 100 complete control), approx. 10 d
In short: as §2

[8] = system: giant foxtail (Setaria faberii); assay: Test A postemergence; details: Setaria faberi, post-emergence, 240 h, postemergence, approx. 10 d; for pest or weed control at 125 g/ha: 125 g ai/ha, visual injury on 0 to 100 scale (0 no effect, 100 complete control), read-out: Foxtail, Giant plant response rating; for pest or weed control at 500 g/ha: 500 g ai/ha, visual injury, 0 to 100 scale (0 no effect, 100 complete control), read-out: Plant response rating, Foxtail, Giant
In short: as §2

[9] = system: wheat (Triticum aestivum); assay: Test A postemergence; details: Triticum aestivum, post-emergence, 240 h, postemergence, approx. 10 d; for plant injury at 125 g/ha: 125 g ai/ha, visual injury on 0 to 100 scale (0 no effect, 100 complete control), read-out: Wheat plant response rating; for plant injury at 500 g/ha: 500 g ai/ha, visual injury, 0 to 100 scale (0 no effect, 100 complete control), read-out: Plant response rating, Wheat
In short: as §2

[10] = system: ryegrass, Italian (Italian ryegrass, Lolium multiflorum); assay: Test A postemergence; details: Lolium multiflorum, post-emergence, 240 h, postemergence, approx. 10 d; for pest or weed control at 125 g/ha: 125 g ai/ha, visual injury on 0 to 100 scale (0 no effect, 100 complete control), read-out: Ryegrass, Italian plant response rating; for pest or weed control at 500 g/ha: 500 g ai/ha, visual injury, 0 to 100 scale (0 no effect, 100 complete control), read-out: Plant response rating, Ryegrass, Italian
In short: as §2

[11] = system: blackgrass (Alopecurus myosuroides); assay: Test A postemergence; details: Alopecurus myosuroides, post-emergence, 240 h, read-out: Plant response rating, Blackgrass; for pest or weed control at 125 g/ha: 125 g ai/ha, Postemergence, visual injury after approximately 10 d, 0 to 100 scale where 0 is no effect and 100 is complete control; for pest or weed control at 500 g/ha: 500 g ai/ha, postemergence, visual injury, 0 to 100 scale (0 no effect, 100 complete control), approx. 10 d
In short: as §2

[12] = system: ragweed (common ragweed, Ambrosia elatior); assay: Test A postemergence; details: Ambrosia artemisiifolia, post-emergence, 240 h, postemergence, approx. 10 d; for pest or weed control at 125 g/ha: 125 g ai/ha, visual injury on 0 to 100 scale (0 no effect, 100 complete control), read-out: Ragweed plant response rating; for pest or weed control at 500 g/ha: 500 g ai/ha, visual injury, 0 to 100 scale (0 no effect, 100 complete control), read-out: Plant response rating, Ragweed
In short: as §2

Structure (SMILES)	pest or weed control at 250 g/ha [1] [%]	pest or weed control at 250 g/ha [2] [%]	pest or weed control at 250 g/ha (rice (Oryra sativa)) [%]	pest or weed control at 250 g/ha [3] [%]	pest or weed control at 125 g/ha [4] [%]	pest or weed control at 500 g/ha [4] [%]	pest or weed control at 125 g/ha [5] [%]	pest or weed control at 125 g/ha [6] [%]	pest or weed control at 500 g/ha [6] [%]	pest or weed control at 125 g/ha (Kochia (Kochia scoparia)) [%]	pest or weed control at 500 g/ha (Kochia (Kochia scoparia)) [%]	pest or weed control at 125 g/ha [7] [%]	pest or weed control at 500 g/ha [7] [%]	Corn plant response rating (crop injury, 0 = no effect, 100 = complete kill) at 125 g/ha (corn (Zea mays)) [%]	Corn plant response rating (crop injury, 0 = no effect, 100 = complete kill) at 500 g/ha (corn (Zea mays)) [%]	pest or weed control at 125 g/ha [8] [%]	pest or weed control at 500 g/ha [8] [%]	plant injury at 125 g/ha [9] [%]	pest or weed control at 125 g/ha [10] [%]	pest or weed control at 125 g/ha [11] [%]	also measured
CC(C)COc1cccc([C@H]2CN(C)C(=O)[C@@H]2C(=O)Nc2ccccc2F)c1 [Compound 1028]	0	20	10	80	90	90	0	40	50	0	0	80	90	0	30	80	80	0	0	30	pest or weed control at 500 g/ha [5]: 0%; plant injury at 500 g/ha [9]: 40%; pest or weed control at 500 g/ha [10]: 40%; pest or weed control at 500 g/ha [11]: 40%; pest or weed control at 125 g/ha [12]: 0%; pest or weed control at 500 g/ha [12]: 0%
CC(C)COc1cccc([C@H]2CN(C)C(=O)[C@@H]2C(=O)Nc2cccc(F)c2F)c1 [Compound 1029]	0	0	0	85	90	90	0	20	40	0	0	80	90	50	70	80	90	30	0	30	pest or weed control at 500 g/ha [5]: 0%; plant injury at 500 g/ha [9]: 60%; pest or weed control at 500 g/ha [10]: 40%; pest or weed control at 500 g/ha [11]: 40%; pest or weed control at 125 g/ha [12]: 0%; pest or weed control at 500 g/ha [12]: 0%
Cc1ccc([C@H]2CNC(=O)[C@@H]2C(=O)Nc2ccccc2S(C)(=O)=O)cc1C [Compound 1037]	0	25	0	100	80	90	0	40	60	0	20	70	90	0	30	0	30	0	0	0	pest or weed control at 500 g/ha [5]: 0%; plant injury at 500 g/ha [9]: 30%; pest or weed control at 500 g/ha [10]: 50%; pest or weed control at 500 g/ha [11]: 20%; pest or weed control at 125 g/ha [12]: 20%; pest or weed control at 500 g/ha [12]: 30%
Cc1ccc([C@H]2CN(C)C(=O)[C@@H]2C(=O)Nc2cccc(F)c2F)cc1C [Compound 1039]	0	65	0	90	90	100	0	40	60	40	60	90	90	70	70	90	90	50	50	30	pest or weed control at 500 g/ha [11]: 40%; pest or weed control at 125 g/ha [12]: 10%
